This assay concerns HCV replicon. Description: HCV replicon luciferase reporter assay. The format is cell-based. As to conditions: Hepatitis C virus, Table 5; read-out: IC50. Here is the method: The inhibitory activity of certain exemplary compounds of the invention was confirmed using an HCV replicon assay. The HCV replicon can include such features as the HCV IRES, the HCV 3′ untranslated region, selected HCV genes encoding HCV polypeptides, selectable markers, and a reporter gene such as luciferase, GFP, etc. In the assay, actively dividing replicon-comprising cells were seeded at a density of between about 5,000 and 7,500 cells/well onto 96 well plates (about 90 μl of cells per well) and incubated at 37° C. and 5% CO2 for 24 hours. Then, the test compound (in a volume of about 10 μL) was added at various concentrations to each well and the cells were incubated for an additional 24-48 hours. The cells were harvested, and HCV replication or translation was monitored via a reporter assay, e.g., a luciferase reporter assay. The media was aspirated from each cell and Bright-Glo ([…].) luciferase assay reagents were added to each well according to the manufacturer's instructions. In this assay, the amount of test compound that yielded a 50% reduction in luciferase activity (IC50) was determined.

Usually IC50 stands for the midpoint of a concentration-inhibition curve.

In the case of `COc1ccc(NCCCNc2nsc3ccccc23)nc1` [Compound 282, N^1-(benzo[d]isothiazol-3-yl)-N^3-(5-methoxypyridin-2-yl)propane-1,3-diamine], the IC50 was less than 5 µM. `O=S(=O)(NCCCNc1nsc2ccccc12)c1ccc(-c2ccccc2C(F)(F)F)cc1` [Compound 335, N-(3-(benzo[d]isothiazol-3-ylamino)propyl)-2′-(trifluoromethyl)biphenyl-4-sulfonamide]: the concentration for half-maximal inhibition (IC50) is less than 5 µM. As to `O=S(=O)(NCCCNc1nsc2ccccc12)c1c(F)cc(F)cc1Br` [Compound 253, N-(3-(benzo[d]isothiazol-3-ylamino)propyl)-2-bromo-4,6-difluorobenzenesulfonamide], the IC50 is less than 5 µM. With `O=C(NCCNc1nsc2ccccc12)c1cccc(C(=O)NC2CC2)c1` [Compound 431, N^1-(2-(benzo[d]isothiazol-3-ylamino)ethyl)-N^3-cyclopropylisophthalamide], the IC50 is less than 5 µM.

Turning to `O=C(NCCNc1nsc2ccccc12)c1cc(F)ccc1F` [Compound 350, N-(2-(benzo[d]isothiazol-3-ylamino)ethyl)-2,5-difluorobenzamide], the IC50 was less than 5 µM. The figure for `O=S(=O)(c1ccc(CNCCCNc2nsc3ccccc23)cc1)N1CCOCC1` [Compound 259, N^1-(benzo[d]isothiazol-3-yl)-N^3-(4-(morpholinosulfonyl)benzyl)propane-1,3-diamine] is more than 5 µM; for `CN(C)CCCNc1cccc(C(=O)NCCCNc2nsc3ccccc23)n1` [Compound 447, N-(3-(benzo[d]isothiazol-3-ylamino)propyl)-6-(3-(dimethylamino)propylamino)picolinamide] it is less than 5 µM; for `CCCNC(=O)c1ccc(C(=O)NCCNc2nsc3ccccc23)cc1` [Compound 418, N^1-(2-(benzo[d]isothiazol-3-ylamino)ethyl)-N^4-propylterephthalamide] it is more than 5 µM. For `Cc1cccc(C(=O)NCCNc2nsc3ccccc23)n1` [Entry 13, N-(2-(Benzo[d]isothiazol-3-ylamino)ethyl)-6-methylpicolinamide], the IC50 was more than 5 µM.

Regarding `O=C(O)c1cccc(C(=O)NCCNc2nsc3ccccc23)n1` [Entry 81, 6-(2-(Benzo[d]isothiazol-3-ylamino)ethylcarbamoyl)picolinic Acid], the IC50 is more than 5 µM. `N#Cc1ccnc(NCCCNc2nsc3ccccc23)c1` [Entry 229, 2-(3-(benzo[d]isothiazol-3-ylamino)propylamino)pyridine-4-carbonitrile]: the IC50 was less than 5 µM. The figure for `COc1ccc(CNCCCNc2nsc3ccccc23)cc1O` [Compound 304, 5-((3-(benzo[d]isothiazol-3-ylamino)propylamino)methyl)-2-methoxyphenol] is less than 5 µM; for `CCCCNc1cccc(C(=O)NCCCNc2nsc3ccccc23)n1` [Compound 448, N-(3-(benzo[d]isothiazol-3-ylamino)propyl)-6-(butylamino)picolinamide] it is more than 5 µM. `COc1ccc(-c2cccc(C(=O)NCCNc3nsc4ccccc34)c2)cc1` [Compound 371, N-(2-(benzo[d]isothiazol-3-ylamino)ethyl)-4′-methoxybiphenyl-3-carboxamide]: the IC50 was less than 5 µM. Take `COc1ccc(-c2ccc(C(=O)NCCCNc3nsc4cc(S(=O)(=O)NC(C)(C)C)ccc34)cc2)cc1` [Compound 399, N-(3-(6-(N-tert-butylsulfamoyl)benzo[d]isothiazol-3-ylamino)propyl)-4′-methoxybiphenyl-4-carboxamide]: the IC50 is more than 5 µM.

Turning to `COc1ccc(NS(=O)(=O)c2ccc(CNCCCNc3nsc4ccccc34)cc2)cc1` [Compound 258, 4-((3-(benzo[d]isothiazol-3-ylamino)propylamino)methyl)-N-(4-methoxyphenyl)benzenesulfonamide], the IC50 was less than 5 µM. In the case of `COc1ccc(Cl)cc1-c1ccc(CNCCCNc2nsc3ccccc23)cc1` [Compound 294, N^1-(benzo[d]isothiazol-3-yl)-N^3-((5′-chloro-2′-methoxybiphenyl-4-yl)methyl)propane-1,3-diamine], the IC50 is less than 5 µM.

Regarding `COc1ccc(-c2ccc(C(=O)NCCCNc3nsc4ccc(-c5ccccc5)cc34)cc2)cc1` [Compound 405, 4′-methoxy-N-(3-(5-phenylbenzo[d]isothiazol-3-ylamino)propyl)biphenyl-4-carboxamide], the IC50 is less than 5 µM. The figure for `COC(=O)c1cccc(C(=O)NCCNc2nsc3ccccc23)n1` [Entry 80, Methyl 6-(2-(Benzo[d]isothiazol-3-ylamino)ethylcarbamoyl)picolinate] is more than 5 µM; for `O=C(NCCCNc1nsc2ccccc12)c1cccc(OCC(O)CN2CCOCC2)c1` (stereo not drawn) [Entry 232, N-(3-(benzo[d]isothiazol-3-ylamino)propyl)-3-(2-hydroxy-3-morpholinopropoxy)benzamide] it is less than 5 µM. Under `CC1=NN(c2ccc(C(=O)NCCNc3nsc4ccccc34)cc2)C(=O)C1` [Compound 441, N-(2-(benzo[d]isothiazol-3-ylamino)ethyl)-4-(3-methyl-5-oxo-4,5-dihydropyrazol-1-yl)benzamide] stands more than 5 µM; under `COc1ccc(-c2ccc(C(=O)NCCCNc3nsc4cccc(S(N)(=O)=O)c34)cc2)cc1` [Compound 401, 4′-methoxy-N-(3-(4-sulfamoylbenzo[d]isothiazol-3-ylamino)propyl)biphenyl-4-carboxamide], more than 5 µM; under `O=S(=O)(c1ccc(CNCCCNc2nsc3ccccc23)cc1)N1CCCC1` [Compound 260, N^1-(benzo[d]isothiazol-3-yl)-N^3-(4-(pyrrolidin-1-ylsulfonyl)benzyl)propane-1,3-diamine], more than 5 µM. Under `CCCCNC(=O)c1cccc(C(=O)NCCNc2nsc3ccccc23)c1` [Compound 429, N^1-(2-(benzo[d]isothiazol-3-ylamino)ethyl)-N^3-butylisophthalamide] stands less than 5 µM; under `O=C(NCCCNc1nsc2ccccc12)c1ccc2[nH]ccc2c1` [Compound 450, N-(3-(benzo[d]isothiazol-3-ylamino)propyl)-1H-indole-5-carboxamide], less than 5 µM. Consider `O=S(=O)(NCCCNc1nsc2ccccc12)c1ccc(Br)cc1Cl` [Compound 262, N-(3-(benzo[d]isothiazol-3-ylamino)propyl)-4-bromo-2-chlorobenzenesulfonamide], for which the IC50 is less than 5 µM.

Turning to `CCCCC(=O)Nc1ccc2oc(C(=O)NCCCNc3nsc4ccccc34)cc2c1` [Compound 453, N-(3-(benzo[d]isothiazol-3-ylamino)propyl)-5-pentanamidobenzofuran-2-carboxamide], the IC50 is less than 5 µM. Under `COc1ccc(-c2ccc(CN(C)CCCN(C)c3nsc4ccccc34)cc2)cc1` [Compound 347, N^1-(benzo[d]isothiazol-3-yl)-N^3-((4′-methoxybiphenyl-4-yl)methyl)-N^1,N^3-dimethylpropane-1,3-diamine] stands more than 5 µM; under `O=C(NCCCNc1nsc2ccccc12)c1cccc(F)n1` [Compound 420, N-(3-(benzo[d]isothiazol-3-ylamino)propyl)-6-fluoropicolinamide], more than 5 µM; under `O=C(Cc1c[nH]c2ccccc12)NCCNc1nsc2ccccc12` [Entry 82, N-(2-(Benzo[d]isothiazol-3-ylamino)ethyl)-2-(1H-indol-3-yl)acetamide], more than 5 µM.

The record behind these values is patent US7776847B2, “Benzisothiazoles useful for treating or preventing HCV infection” (priority 2005, dated 2010).
